Experimental data from patent publication US5808040A, “L-nucleosides incorporated into polymeric structure for stabilization of oligonucleotides” (priority 1997, dated 1998).

Tests used:
EBV = assay: Inhibitory effect on EBV in H1 cells, bioassay by EBV DP activity in superinfected Raji cells; format: cell-based, Epstein-Barr virus; conditions: EBV ID90 vs H1 cell CD50
Protocol: (§1) H1 cells were maintained in […] growth for two days prior to the initiation of treatment. The cells were centrifuged at 600 g for 10 min. at room temperature to separate them from the medium containing pre-existing virus particles. The H1 cells were seeded in 24 well plates at a density of 1×10^5 cells per well in 2 ml of fresh medium with or without drug and incubated at 37° C. for 5 days. The medium containing virion was saved and used for evaluating the inhibitory effect of drugs on virus production and infectivity by use of a bioassay. The virion were pelleted from the cell free medium by centrifugation at 45,000 rpm for 90 min. in a SW-50 Ti rotor (Beckman). The virion were resuspended in 1 ml growth medium and then used to infect 1×10^6 Raji cells for 48 hours. Since the level of EBV DP activity in Raji cells post superinfection is proportional to the number of virions added, the EBV specific DP activity induced was able to be measured. The inhibitory drug effect was calculated by comparing the EBV DP activity to multiple dilution controls.
and compared with controls. Hl cells were treated for 5 days and the
ID90 was determined by bioassay.

H1 cells = assay: Cytotoxicity in H1 cells (72 hours, cell count); format: cell-based; conditions: summary statement, cells not specified
Protocol: Inhibitory effect of compounds on EBV: The CD50 was performed by
exposing Hl cells to different concentrations of the compounds in normal
growth medium at 37° C. for 72 hours; the cells were then counted
and compared with controls. Hl cells were treated for 5 days and the […]

mitochondrial DNA = assay: Mitochondrial DNA content in H1 cells (slot blot assay); format: cell-based, human; conditions: 1 mM, 6 days
Protocol: as §1
Slot Blot Assay--The amount of mitochondrial DNA was measured by the slot blot method (2). […] The amount of mitochondrial DNA in the treated and non-treated H1 cells was quantified by densitometer (LKB Ultroscan XL).

[1] = Clearance of L-(-)-FMAU from plasma and liver of mice after oral administration; format: in vivo, mouse
Protocol: The clearance of L-(-)-FMAU from the plasma and liver of mice after oral administration was evaluated. Mice were […] with L-(-)-FMAU which was tritium labeled (radiospecificity of […]).
FIG. 11 is a graph of the plasma concentration of L-(-)-FMAU in mice after oral administration 10 over time, and FIG. 12 is a graph of the concentration of L-(-)-FMAU in mouse liver after oral administration over time (cross, 10 mg/kg administered bid (bi-daily) for 30 days prior to pharmacokinetic study and then study carried out on day thirty one on administration of same concentration; dark circle, 50 mg/kg administered bid for 30 days prior to study and then study carried out on day thirty one on administration of same concentration; open circle, 50 mg/kg administered for the first time on the first day of the study).
At the times indicated (see FIGS. 10 and 11) the mice were bled from their retro-orbital sinus using heparinized capillaries. The plasma was extracted with trichloroacetic acid and neutralized with freon/trioctylamine. Supernatants were directly counted and the concentration calculated.

[2] = Toxicity in BDF1 female mice, change in body weight over thirty days; format: in vivo, mouse
Protocol: FIG. 13a illustrates the change in body weight over thirty days of control BDF1 female mice. FIGS. 13b and 13c illustrate the change in body weight over thirty days of BDF1 female mice dosed with 10 mg/kg (13b) and 50 mg/kg (13c) bid of L-(-)-FMAU. The body weight presented represents the mean and standard deviation of that of five to seven mice.

[3] = Clinical chemistry of mouse plasma after L-(-)-FMAU treatment; format: in vivo; conditions: 10 or 50 mg/kg bid for thirty days
Protocol: FIGS. 14-20 provide the clinical chemistry of mouse plasma after administration of L-(-)-FMAU at 10 mg/kg (three mice) or 50 mg/kg (three mice) bid for thirty days.

[4] = with the exception of mouse 50-2

SMILES: Nc1nc2c(ncn2COCCO)c(=O)[nH]1 [ACV]
- Therapeutic Index (CD50 /ID90) (EBV): 20

SMILES: CCc1cn([C@@H]2O[C@H](CO)[C@@H](O)[C@@H]2F)c(=O)[nH]c1=O [D-FEAU]
- Therapeutic Index (CD50 /ID90) (EBV): 2000

SMILES: Nc1nc(=O)n([C@@H]2O[C@H](CO)[C@@H](O)[C@@H]2F)cc1I [D-FIAC]
- Therapeutic Index (CD50 /ID90) (EBV): 25

SMILES: O=c1[nH]c(=O)n([C@@H]2O[C@H](CO)[C@@H](O)[C@@H]2F)cc1I [D-FIAU]
- Therapeutic Index (CD50 /ID90) (EBV): 40

SMILES: Cc1cn([C@@H]2O[C@H](CO)[C@@H](O)[C@@H]2F)c(=O)[nH]c1=O [D-FMAU]
- Therapeutic Index (CD50 /ID90) (EBV): 50

SMILES: Nc1nc2c(ncn2COC(CO)CO)c(=O)[nH]1 [DHPG]
- Therapeutic Index (CD50 /ID90) (EBV): 15

SMILES: CCc1cn([C@H]2O[C@@H](CO)[C@H](O)[C@H]2F)c(=O)[nH]c1=O [L-FEAU, 2'-fluoro-5-ethyl-β-L-arabinofuranosyluridine]
- Therapeutic Index (CD50 /ID90) (EBV): 15

SMILES: Nc1nc(=O)n([C@H]2O[C@@H](CO)[C@H](O)[C@H]2F)cc1I [L-FIAC, 2'-fluoro-5-iodo-β-L-arabinofuranosylcytosine]
- Therapeutic Index (CD50 /ID90) (EBV): > 40

SMILES: O=c1[nH]c(=O)n([C@H]2O[C@@H](CO)[C@H](O)[C@H]2F)cc1I [L-FIAU, 2'-fluoro-5-iodo-β-L-arabinofuranosyluridine]
- Therapeutic Index (CD50 /ID90) (EBV): 12

SMILES: Cc1cn([C@H]2O[C@@H](CO)[C@H](O)[C@H]2F)c(=O)[nH]c1=O [L-FMAU, 2'-fluoro-5-methyl-β-L-arabinofuranosyluridine]
- cytotoxicity (in words) (H1 cells): low cytotoxicity
- Therapeutic Index (CD50 /ID90) (EBV): 200
- inhibition of mitochondrial DNA content in H1 cells (mitochondrial DNA): No inhibition
- time of peak concentration in liver ([1]; 10 or 50 mg/kg, liver): approximately one
- clearance from liver ([1]; liver): substantially cleared from both plasma and liver after four hours
- clearance from plasma ([1]; plasma): substantially cleared from both plasma and liver after four hours
- tolerability ([2]; BDF1 female mice, 10 and 50 mg/kg bid, thirty days): well tolerated
- change in body weight ([2]; mouse, in vivo): did not appear to significantly affect the weight of the mice over thirty days
- lactic acid in mouse plasma [3]: not significantly different from those of the control mice
- lactic dehydrogenase in mouse plasma [3]: not significantly different from those of the control mice
- total bilirubin in mouse plasma [3]: fall within the normal human range (less than 1.2 mg/dL)
- alkaline phosphatase in mouse plasma ([3]; normal human level 30-114 U/L): somewhat higher than the normal human level
- ALT (SGPT) in mouse plasma [3, 4]: not different from those of the control mice
- creatinine in mouse plasma [3, 4]: not different from those of the control mice
- AST (SGOT) in mouse plasma ([3]; with the exception of mouse 50-2 and mouse 10-2): not different from those of the control mice

SMILES: Nc1nc2c(ncn2CCC(CO)CO)c(=O)[nH]1 [PCV]
- Therapeutic Index (CD50 /ID90) (EBV): 25

SMILES: O=C(O)P(=O)(O)O [PFA]
- Therapeutic Index (CD50 /ID90) (EBV): 16
